Measured values reported in article PMC8119466, “A screen of FDA-approved drugs identifies inhibitors of protein tyrosine phosphatase 4A3 (PTP4A3 or PRL-3)” (Scientific Reports, 2021).
Where a name gives a salt, the structure may show the parent alone. Read-outs that look alike come from different tables or passages of the source.

Experiments:
Type in all cases: biochemical
recombinant PRL-2 = target: T1, recombinant PRL-2 (Homo sapiens, UniProt Q12974); assay: In vitro phosphatase assay (DiFMUP hydrolysis), PRL-2;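 note: PRL-2 activity read as DiFMUP hydrolysis after 20 min at room temperature with drug, enzyme first pre-reduced at 4 °C for 20 min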
T1 construct: 6xHis (N, cleaved yes); made in house; host or cells: E. coli One Shot BL21 Star
T1 sequence (Q12974 1-167): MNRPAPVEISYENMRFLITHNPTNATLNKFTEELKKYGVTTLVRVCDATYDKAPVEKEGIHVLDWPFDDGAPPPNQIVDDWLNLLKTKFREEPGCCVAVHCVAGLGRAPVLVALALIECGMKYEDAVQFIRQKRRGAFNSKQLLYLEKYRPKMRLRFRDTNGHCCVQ
Procedure: Briefly, protein was diluted in reaction buffer and allowed to incubate at 4 °C for 20 min to allow for full reduction of the active site. DiFMUP, drug, and protein were added, and plates were incubated for 20 min at room temperature. Fluorescence intensities were measured on a Cytation 5 plate reader (Biotek) at an EX:360 nm and EM:460 nm. […] Inhibition selectivity for PRLs over a panel of other phosphatases was determined using PhosphataseProfiler (Eurofins, Cat # PP260).

recombinant PRL-3 = target: T2, recombinant PRL-3 (Homo sapiens, UniProt O75365); assay: In vitro phosphatase assay (DiFMUP hydrolysis), PRL-3; note: test concentration or dose not given here
T2 construct: 6xHis (N, cleaved yes); made in house; host or cells: E. coli One Shot BL21 Star
T2 sequence (O75365 whole entry): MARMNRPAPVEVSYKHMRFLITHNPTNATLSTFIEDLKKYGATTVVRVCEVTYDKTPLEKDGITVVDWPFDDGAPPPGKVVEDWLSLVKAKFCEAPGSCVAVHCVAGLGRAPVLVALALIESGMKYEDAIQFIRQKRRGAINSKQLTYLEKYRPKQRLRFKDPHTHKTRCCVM

recombinant PRL-1 = target: T3, recombinant PRL-1 (Homo sapiens, UniProt Q93096); assay: In vitro phosphatase assay (DiFMUP hydrolysis), PRL-1; note: test concentration or dose not given here
T3 construct: 6xHis (N, cleaved yes); made in house; host or cells: E. coli One Shot BL21 Star
T3 sequence (Q93096 1-173): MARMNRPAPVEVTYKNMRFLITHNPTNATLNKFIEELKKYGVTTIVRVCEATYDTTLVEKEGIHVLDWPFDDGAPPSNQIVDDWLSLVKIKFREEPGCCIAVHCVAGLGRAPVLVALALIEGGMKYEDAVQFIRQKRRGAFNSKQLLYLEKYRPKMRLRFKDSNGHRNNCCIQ

[1] = FDA-approved drug screen, compared to DMSO
[2] = FDA-approved drug screen, activity compared to DMSO

Row | % Phosphatase Activity (compared to DMSO) PRL-2 (recombinant PRL-2; [1]) | % Phosphatase Activity (compared to DMSO) PRL-3 (recombinant PRL-3; [1]) | % Phosphatase Activity (compared to DMSO) PRL-1 (recombinant PRL-1; [1]) | Molecule | other results
1 | 88% | 65% | 87% | CC(=O)O[C@@]12CO[C@@H]1C[C@H](O)[C@@]1(C)C(=O)[C@H](O)C3=C(C)[C@@H](OC(=O)[C@H](O)[C@@H](NC(=O)OC(C)(C)C)c4ccccc4)C[C@@](O)([C@@H](OC(=O)c4ccccc4)[C@H]21)C3(C)C [Docetaxel] | –
2 | 100% | 70% | 93% | O=c1[nH]c(=O)n([C@H]2C[C@H](O)[C@@H](CO)O2)cc1F [Floxuridine] | –
3 | – | – | – | CN[C@@H]1[C@H](O)[C@H](NC)[C@H]2O[C@@]3(O)C(=O)C[C@@H](C)O[C@H]3O[C@@H]2[C@H]1O.Cl.Cl [Spectinomycin HCl] | % Phosphatase Activity (compared to DMSO) PRL-2 (recombinant PRL-2; [2]): 110%; % Phosphatase Activity (compared to DMSO) PRL-3 (recombinant PRL-3; [2]): 77%; % Phosphatase Activity (compared to DMSO) PRL-1 (recombinant PRL-1; [2]): 109%
4 | 107% | 94% | 83% | CC12CC3CC(C)(C1)CC(N)(C3)C2 [Memantine HCl] | –
5 | 95% | 92% | 90% | C[C@H]1C[C@@H]2[C@H]([C@@H](O)C[C@@]3(C)[C@H]2CC[C@]3(O)C(=O)CO)[C@@]2(C)C=CC(=O)C=C12 [Methylprednisolone] | –
6 | – | – | – | Cl.Cl.Cl.O[C@@H](COc1cccc2ncccc12)CN1CCN([C@@H]2c3ccccc3[C@@H]3[C@H](c4ccccc42)C3(F)F)CC1 [Zosuquidar (LY335979) 3HCl] | % Phosphatase Activity (compared to DMSO) PRL-2 (recombinant PRL-2; [2]): 98%; % Phosphatase Activity (compared to DMSO) PRL-3 (recombinant PRL-3; [2]): 91%; % Phosphatase Activity (compared to DMSO) PRL-1 (recombinant PRL-1; [2]): 107%
7 | 98% | 89% | 105% | NS(=O)(=O)c1ccc(C(=O)O)cc1 [Carzenide] | –
8 | – | – | – | CC(=O)Nc1cccc(-n2c(=O)n(C3CC3)c(=O)c3c(Nc4ccc(I)cc4F)n(C)c(=O)c(C)c32)c1 [Trametinib (GSK1120212)] | % Phosphatase Activity (compared to DMSO) PRL-2 (recombinant PRL-2; [2]): 112%; % Phosphatase Activity (compared to DMSO) PRL-3 (recombinant PRL-3; [2]): 88%; % Phosphatase Activity (compared to DMSO) PRL-1 (recombinant PRL-1; [2]): 88%
9 | – | – | – | Clc1cccc(Cl)c1N=C1NCCN1 [Clonidine HCl] | % Phosphatase Activity (compared to DMSO) PRL-2 (recombinant PRL-2): 115%; % Phosphatase Activity (compared to DMSO) PRL-3 (recombinant PRL-3): 85%; % Phosphatase Activity (compared to DMSO) PRL-1 (recombinant PRL-1): 118%
10 | – | – | – | NC(CO)(CO)CO [Trometamol] | % Phosphatase Activity (compared to DMSO) PRL-2 (recombinant PRL-2): 105%; % Phosphatase Activity (compared to DMSO) PRL-3 (recombinant PRL-3): 82%; % Phosphatase Activity (compared to DMSO) PRL-1 (recombinant PRL-1): 102%
11 | 117% | 90% | 92% | Cc1ccc(N(CC2=NCCN2)c2cccc(O)c2)cc1 [Phentolamine Mesylate] | –
12 | 94% | 71% | 95% | CC(C(=O)O)c1ccc2c(c1)[nH]c1ccc(Cl)cc12 (stereo not drawn) [Carprofen] | –
13 | 100% | 85% | 125% | COc1c(C)c2c(c(O)c1C/C=C(\C)CCC(=O)O)C(=O)OC2 [Mycophenolic acid] | –
14 | – | – | – | C[C@@H]1COC(Nc2ccc3ncnc(Nc4ccc(OCc5nccs5)c(Cl)c4)c3c2)=N1 [Varlitinib] | % Phosphatase Activity (compared to DMSO) PRL-2 (recombinant PRL-2; [2]): 142%; % Phosphatase Activity (compared to DMSO) PRL-3 (recombinant PRL-3; [2]): 132%; % Phosphatase Activity (compared to DMSO) PRL-1 (recombinant PRL-1; [2]): 126%

Row | Molecule | % Phosphatase Activity (compared to DMSO) PRL-2 (recombinant PRL-2; [1]) | % Phosphatase Activity (compared to DMSO) PRL-3 (recombinant PRL-3; [1]) | % Phosphatase Activity (compared to DMSO) PRL-1 (recombinant PRL-1; [1]) | other results
15 | S-Ruxolitinib (INCB018424) | 127% | 104% | 113% | –
16 | O=C(O)c1ccccc1O [Salicylic acid] | 124% | 98% | 103% | –
17 | NNC(=O)c1ccncc1.Nc1ccc(C(=O)O)c(O)c1 [Pasiniazid] | 97% | 82% | 91% | –
18 | C=CC[N+]1([C@H]2C[C@H]3[C@@H]4CC[C@H]5C[C@H](O)[C@@H](N6CCOCC6)C[C@]5(C)[C@H]4CC[C@]3(C)[C@H]2OC(C)=O)CCCC1 [Rocuronium Bromide] | 106% | 90% | 100% | –
19 | O.O.O.O.O=C([O-])CC(O)(CC(=O)[O-])C(=O)[O-].[Li+].[Li+].[Li+] [Citric acid trilithium salt tetrahydrate] | 92% | 89% | 93% | –
